“And” between values parts separate entries of the source, which are not always exact repeats. Identical values can stand only once. Like-named read-outs stand apart in the source and are kept apart here.
Experiments:
ER-negative SUM149 cells = assay: MTT cell proliferation assay on SUM149 cells; format: cell-based; settings: read-out: IC50 growth inhibition
Protocol: (§1) MDA-MB-453 (ER negative, Her2 overexpressing), MDA-MB-468 (triple negative) and MCF7 (ER positive, Her2 low) cells, HT29 (p53 positive human colon cancer cells) (ATCC, Manassas, Va.) were grown in Dulbecco's Modified Eagle's medium (DMEM) (Gibco BRL Life Technologies, Inc., Rockville, Md.) containing 10% (v/v) fetal bovine serum (FBS) (Gibco BRL) at 37° C., 5% C02. SUM 149 (Her2 overexpressing, ER low) (the gift of Dr. R. Parsons, Columbia University Medical Center, New York, N.Y.) were cultivated in Ham's F-12 medium with 10% FBS. MCF7 and MCF7/Her2-18 (MCF7 cells transfected with a full length Her2 cDNA coding region, 45-fold increase Her2) were the kind gift of Dr. Dennis Slamon (Los Angeles, Calif.). These cells were maintained in RPMI supplemented with 10% FBS plus glutamine (1%) and PSF (1%) (Gibco, Rockville Md.).
(§2) MTT assay: the MTT {3-(4,5-dimethyl-2-thiazol)-2,5-diphenyl-2H tetrazolilum bromide} (Dojindo; Tokyo, Japan) cell proliferation assay system (Roche Diagnostic, Mannheim, Germany) was used to determine the sensitivity of the various cell lines to agents. Cells were seeded at 1×10^4 cells/well in 96-well plates and allowed to attach for 24 h. […] The cells were treated for 96 or 120 h, after which they were incubated with MTT reagents and the absorbance read at 650 and 575 nm. For cell growth assays, the data are expressed as mean+/−standard deviation. […]

[1] = system: MDA-MB-468 triple negative breast cancer cells; assay: MTT cell proliferation assay on MDA-MB-468 cells; format: cell-based, human; settings: for IC50: read-out: IC50 growth inhibition
Protocol: as §1
(§3) MTT assay: the MTT {3-(4,5-dimethyl-2-thiazol)-2,5-diphenyl-2H tetrazolilum bromide} (Dojindo; Tokyo, Japan) cell proliferation assay system (Roche Diagnostic, Mannheim, Germany) was used to determine the sensitivity of the various cell lines to agents. Cells were seeded at 1×10^4 cells/well in 96-well plates and allowed to attach for 24 h. The medium was replaced with fresh medium containing DMSO or compound. The cells were treated for 96 or 120 h, after which they were incubated with MTT reagents and the absorbance read at 650 and 575 nm. For cell growth assays, the data are expressed as mean+/−standard deviation. Control and treated cells were compared using the student's t-test (p<0.05).
To determine the Combination Index (CI), cells were treated with all combinations of 4 or 5 concentrations of each of the agents tested and a solvent control. The results of the MTT assay were analyzed for possible synergistic effects using the median effect principle. Variable ratios of drugs were employees and mutually exclusive equations were assumed.

[2] = system: MCF7 (ER positive, Her2 low) cells; assay: MTT cell proliferation assay on MCF7 cells; format: cell-based; settings: Homo sapiens, read-out: IC50 growth inhibition
Protocol: as §1, §2

MCF7/Her2-18 cells = assay: MTT cell proliferation assay on MCF7/Her2-18 cells; format: cell-based; settings: Homo sapiens; MCF7/Her2-18 (45-fold increase Her2); read-out: IC50 growth inhibition
Protocol: as §1, §2

[3] = system: MDA-MB-453 human breast cancer cells; assay: Cell cycle analysis by DNA flow cytometry; format: cell-based; settings: 48 h
Protocol: For cell cycle analysis the cells were plated (3×105) onto 6 cm dishes and allowed to attach for 24 h. Then the medium was replaced with DMEM containing 10% FBS and DMSO or agents. After 48 h, the cells were analyzed by DNA flow cytometry.
To examine the effects of rosemary on the cell cycle, MDA-MB-453 human breast cancer cells were treated with rosemary extract enriched for CA (50%) at 40 or 80 μg/ml and purified CA at 10, 20 or 40 μg/ml for 48 h. The cells were then stained with propidium iodide and the stained cells were analyzed by DNA flow cytometry (Table 1).
MDA-MB-453 cells were treated with 0, 10, 20, or 40 μg/ml of carnosic acid or 40, 80 μg/ml of rosemary extract (carnosic acid: 50%), and analyzed at 48 hr by DNA flow cytometry. The values indicate the % of cells in the cell cycle phases.

[4] = system: HT29 human colon cancer cells; assay: Proliferation assay (MTT) on HT29 cells; format: cell-based; settings: 1 μg/ml, HT29, 96 h
Protocol: The HT29 cells were maintained in McCoy's Media containing 10% (v/v) fetal bovine serum (FBS) (Gibco BRL) at 37° C., 5% C02.
as §3
HT29 (p53 positive human colon cancer cells), as well as MDA-MB-453 Her2 overexpressing ER-negative human breast cancer cells are treated with increasing concentrations of the liposome carnosic acid complex and carnosic acid.
Cells were exposed to increasing concentrations of agents for 96 h and the number of viable cells determined by the MTT assay.

[5] = MDA-MB-468 cells, MTT assay, listed as CA

## CC(C)c1cc2c(c(O)c1O)[C@@]1(C(=O)O)CCCC(C)(C)[C@@H]1CC2 [carnosic acid]
ER-negative SUM149 cells
  IC50: 1.7 µg/mL and 5.1 µM
[1]; Homo sapiens, MDA-MB-468, MDA-MB-468 cells, MTT assay
  IC50: 2 µg/mL and 6 µM
[1]; Homo sapiens, MDA-MB-468, CA 2 μg/ml (6 μM) alone, read-out: percent viable cells
  viability at 6 µM: 89.4%
[1]; [5]
  IC50 growth inhibition: 3 µg/mL
  IC50: 9 µM
[2]
  IC50: 25 µg/mL and 75 µM
MCF7/Her2-18 cells
  IC50: 9 µg/mL and 27 µM
[3]; 10 ug/ml
  % of Cells G1: 51.2%
  % of Cells G2: 11.8%
  % of Cells Sub G1: 1.5%
[3]; 10 ug/ul
  % of Cells S: 31.2%
[3]; 20 ug/ml
  % of Cells G1: 71.9%
  % of Cells G2: 9.1%
  % of Cells Sub G1: 1.7%
[3]; 20 ug/ul
  % of Cells S: 15.3%
[3]; 40 ug/ml
  % of Cells G1: 50.8%
  % of Cells G2: 13.9%
  % of Cells Sub G1: 1.6%
[3]; 40 ug/ul
  % of Cells S: 28.9%
[4]
  % proliferation: 99.3%

— US9801844B2, “Methods and compositions for the treatment of cancer” (priority 2012, dated 2017)
